The source made the active and inactive calls. The rule behind the calls is not given here.
Key:
HT-29 = experiment: Cytotoxicity against human HT-29 cells assessed as growth inhibition at 25 uM by MTT assay; format: functional; details: read-out: GI
MDA-MB-231 [1] = experiment: Cytotoxicity against human MDA-MB-231 cells assessed as growth inhibition at 25 uM by MTT assay; format: functional; details: read-out: GI
[2] = test system: Mycolicibacterium smegmatis; experiment: Anti-tubercular activity against Mycobacterium smegmatis str. MC2 155; format: functional, organism-based
[3] = test system: Mycolicibacterium smegmatis; experiment: Anti-tubercular activity against Mycobacterium smegmatis str. MC2 155 relative to untreated control; format: functional
[4] = Cytotoxicity against HEK293 cells assessed as cell growth at 25 uM by MTT assay; format: cell-based; details: human, read-out: Activity
[5] = test system: Mycolicibacterium smegmatis; experiment: Anti-tubercular activity against Mycobacterium smegmatis str. MC2 155 at 30 uM; format: functional, organism-based
MDA-MB-231 [6] = experiment: Cytotoxicity against human MDA-MB-231 cells assessed as growth inhibition by MTT assay; format: functional, cell-based

COc1ccc(OC)c(-c2nnc(N3CCCC(O)C3)s2)c1 (stereo not drawn)
inhibition of growth at 25 µM (HT-29): 31.1%
inhibition of growth at 25 µM (MDA-MB-231 [1]): 39.7%
IC50 [2]: > 100 µM
inhibition (INH) [3]: >=30%
viability at 25 µM [4]: > 74.5%

COc1ccc(OC)c(-c2nnc(N3CCNCC3)s2)c1
inhibition of growth at 25 µM (HT-29): 25.5%
inhibition of growth at 25 µM (MDA-MB-231 [1]): 41.6%
IC50 [2]: 88.1 µM
inhibition (INH) [3]: >=30%
viability at 25 µM [4]: > 74.5%

COc1ccc(OC)c(-c2nnc(NCc3ccc(Br)cc3)s2)c1
inhibition of growth at 25 µM (HT-29): 45.4%
inhibition of growth at 25 µM (MDA-MB-231 [1]): 51.5%
IC50 [2]: > 100 µM
inhibition (INH) [3]: >=30%
viability at 25 µM [4]: < 74.5%

COc1ccc(OC)c(-c2nnc(-n3ccnc3)s2)c1
inhibition of growth at 25 µM (HT-29): 21%
inhibition of growth at 25 µM (MDA-MB-231 [1]): 33.5%
viability at 25 µM [4]: > 74.5%
inhibition [5]: inactive

COc1ccc(OC)c(-c2nnc(-n3ccc4cc(OC)ccc43)s2)c1
inhibition of growth at 25 µM (HT-29): 5.65%
inhibition of growth at 25 µM (MDA-MB-231 [1]): 24.7%
viability at 25 µM [4]: > 74.5%
inhibition [5]: inactive

COc1cccc2c1C(=O)c1c(O)c3c(c(O)c1C2=O)C[C@@](O)(C(=O)CO)C[C@@H]3O[C@H]1C[C@H](N)[C@H](O)[C@H](C)O1 [DOXORUBICIN]
IC50 (MDA-MB-231 [6]): 1 µM

COc1ccc(OC)c(-c2nnc(NCc3ccc(Cl)cc3)s2)c1
inhibition of growth at 25 µM (HT-29): 68.7%
inhibition of growth at 25 µM (MDA-MB-231 [1]): 53.8%
IC50 [2]: > 100 µM
inhibition (INH) [3]: >=30%
viability at 25 µM [4]: < 74.5%

COc1ccc(OC)c(-c2nnc(NCc3cccc(C(F)(F)F)c3)s2)c1
inhibition of growth at 25 µM (HT-29): 52.6%
inhibition of growth at 25 µM (MDA-MB-231 [1]): 51.2%
IC50 [2]: 40.9 µM
inhibition (INH) [3]: >=30%
viability at 25 µM [4]: < 74.5%

CCN1CCN(c2nnc(-c3cc(OC)ccc3OC)s2)CC1
inhibition of growth at 25 µM (HT-29): 9.91%
inhibition of growth at 25 µM (MDA-MB-231 [1]): 34.6%
IC50 [2]: > 100 µM
inhibition (INH) [3]: >=30%
viability at 25 µM [4]: > 74.5%

COc1ccc(OC)c(-c2nnc(N3CCCC3)s2)c1
inhibition of growth at 25 µM (HT-29): 18.8%
inhibition of growth at 25 µM (MDA-MB-231 [1]): 38.1%
viability at 25 µM [4]: > 74.5%
inhibition [5]: inactive

COc1ccc(OC)c(CNc2nnc(-c3cc(OC)ccc3OC)s2)c1
inhibition of growth at 25 µM (HT-29): 47.2%
inhibition of growth at 25 µM (MDA-MB-231 [1]): 30.2%
IC50 [2]: > 100 µM
inhibition (INH) [3]: >=30%
viability at 25 µM [4]: > 74.5%

COc1ccc(OC)c(-c2nnc(Cl)s2)c1
inhibition of growth at 25 µM (HT-29): 8.81%
inhibition of growth at 25 µM (MDA-MB-231 [1]): 33.7%
IC50 [2]: 75.6 µM
inhibition (INH) [3]: >=30%
viability at 25 µM [4]: > 74.5%

NNC(=O)c1ccncc1 [ISONIAZID]
IC50 [2]: 16 µM

CO[C@H]1/C=C/O[C@@]2(C)Oc3c(C)c(O)c4c(O)c(c(/C=N/N5CCN(C)CC5)c(O)c4c3C2=O)NC(=O)/C(C)=C\C=C\[C@H](C)[C@H](O)[C@@H](C)[C@@H](O)[C@@H](C)[C@H](OC(C)=O)[C@@H]1C [RIFAMPIN]
IC50 [2]: 1.87 µM

COc1ccc(OC)c(-c2nnc(N3CCC(=O)CC3)s2)c1
inhibition of growth at 25 µM (HT-29): 33.7%
inhibition of growth at 25 µM (MDA-MB-231 [1]): 32.5%
IC50 [2]: > 100 µM
inhibition (INH) [3]: >=30%
viability at 25 µM [4]: > 74.5%

COc1ccc(OC)c(-c2nnc(N)s2)c1
inhibition of growth at 25 µM (HT-29): 20.6%
inhibition of growth at 25 µM (MDA-MB-231 [1]): 32%
IC50 [2]: > 100 µM
inhibition (INH) [3]: >=30%
viability at 25 µM [4]: > 74.5%

COc1ccc(OC)c(-c2nnc(N3CCC(Cc4ccccc4)CC3)s2)c1
inhibition of growth at 25 µM (HT-29): 51%
inhibition of growth at 25 µM (MDA-MB-231 [1]): 33.6%
IC50 [2]: 65.7 µM
inhibition (INH) [3]: >=30%
viability at 25 µM [4]: > 74.5%

COc1ccc(CN2CCN(c3nnc(-c4cc(OC)ccc4OC)s3)CC2)cc1
inhibition of growth at 25 µM (HT-29): 39.8%
inhibition of growth at 25 µM (MDA-MB-231 [1]): 36.5%
IC50 [2]: 80.3 µM
inhibition (INH) [3]: >=30%
viability at 25 µM [4]: > 74.5%

COc1ccc(OC)c(-c2nnc(-c3ccc(C)c([N+](=O)[O-])c3)s2)c1
inhibition of growth at 25 µM (HT-29): 51.9%
inhibition of growth at 25 µM (MDA-MB-231 [1]): 53.3%
viability at 25 µM [4]: > 74.5%
inhibition [5]: inactive

COc1ccc(OC)c(-c2nnc(NCc3ccccc3)s2)c1
inhibition of growth at 25 µM (HT-29): 68.3%
inhibition of growth at 25 µM (MDA-MB-231 [1]): 63%
IC50 [2]: 75.6 µM
inhibition (INH) [3]: >=30%
viability at 25 µM [4]: < 74.5%

COc1ccc(OC)c(-c2nnc(N3CCOCC3)s2)c1
inhibition of growth at 25 µM (HT-29): 18.2%
inhibition of growth at 25 µM (MDA-MB-231 [1]): 31.2%
IC50 [2]: > 100 µM
inhibition (INH) [3]: >=30%
viability at 25 µM [4]: > 74.5%

COc1ccc(OC)c(-c2nnc(N3CCCCC3)s2)c1
inhibition of growth at 25 µM (HT-29): 3.67%
inhibition of growth at 25 µM (MDA-MB-231 [1]): 32.8%
viability at 25 µM [4]: > 74.5%
inhibition [5]: inactive

Reference: ChEMBL document CHEMBL3400035, “Synthesis, in vitro anticancer and antimycobacterial evaluation of new 5-(2,5-dimethoxyphenyl)-1,3,4-thiadiazole-2-amino derivatives” (Bioorg Med Chem Lett, 2015)
